For test [1], the system named is cellulase from Aspergillus niger. Description: cellulase activity: viscosity (flow time) of carboxymethyl cellulose solution. Conditions: additive 10mM dm⁻³ pre-incubated with enzyme one hour at 25°C, about 24 minutes in the absence of cellulase; for Flow Rate (b) With additive 10: flow time after 10 minutes incubation; for Flow Rate (b) With additive 60: flow time after 60 minutes incubation. Type of test: biochemical. How it is done: To determine cellulase activity, 15cm³ of a 1% w/v solution of carboxymethyl cellulose in 50mM/dm³ of a tris (hydroxymethyl) aminomethane/hydrochloric acid buffer having a pH of 9, was incubated at 25°C with 0.01cm³ of a 10mg.cm⁻³ aqueous solution of cellulase from Aspergillus niger obtained from the Sigma Chemical Company.
The viscosity of the cellulose solution was determined after being incubated with the cellulase for either 10 or 60 minutes
To determine the effect of an additive on the spoilage activity of the enzyme, the compound was incubated with the enzyme at 25°C for a period of one hour, the concentration of the additive being 10mM dm⁻³ . The pre-incubated mixture was then added to a carboxymethyl cellulose solution of the type previously described. The resulting mixture was incubated and the viscosity was determined after 10 and 60 minutes incubation.

Test [2] concerns the target chymotrypsin (EC 3.4.21.1) (Bos taurus, UniProt P00766). The experiment in a line: protease catalysed hydrolysis of chromogenic substrate. Type of test: biochemical. Conditions: pH 7, substrate BTEE, one hour at 25°C, pH7, read-out: % of activity retained (h). How it is done: N,N¹-dichlorodimethyl hydantoin was dissolved in ethanol in a known amount and was added to a protease in a 0.1M potassium phosphate buffer containing potassium dihydrogen phosphate and dipotassium hydrogen phosphate at pH7.

For test [3], the system named is amylase (1,4-α-D-glucan-glucanhydrolase; EC 3.2.1.1). Description: amylase activity in the breakdown of starch (3,5-dinitrosalicylate, absorbance at 540nm). Type of test: biochemical, Bacillus species. Conditions: amylase incubated for 90 minutes with 9 X 10⁻⁴M compound; absorption at 540nm. How it is done:
A sample of amylase (1,4-α-D-glucan-glucanhydrolase; EC 3.2.1.1) from a Bacillus species (amylase sample obtained from the Sigma Chemical Company) was tested for activity in the breakdown of starch in the presence and absence of N,N¹-dichlorodimethyl hydantoin.
The activity of the amylase was estimated by a modification of the method described in Methods in Enzymology, published by the Academic Press, Volume 1, on page 149.
1g of potato amylopectin (a soluble starch) was dissolved in 200cm³ of a 20mM sodium phosphate aqueous buffer solution adjusted to pH7. 1cm³ of this solution was equilibrated in a water bath maintained at 25 °C. To the foregoing solution were added 2mm³ of an aqueous solution containing amylase in a concentration of 1mg of amylase/cm³ of solution. The mixture was incubated at 25 °C for five minutes. The reaction was then stopped by the addition of 1cm³ of a 0.4M aqueous sodium hydroxide solution containing 10mg/cm³ of 3,5-dinitrosalicylate and 0.3g/cm³ of sodium potassium tartrate. The resultant mixture was placed in a boiling water bath for five minutes, cooled rapidly and diluted with 10cm³ of water (deionised and subsequently doubly distilled in glass apparatus). The absorbance of the resulting mixture at 540nm was determined using a Perkin Elmer LAMBDA 15 spectrophoto meter.

The subject of test [4] is lipase from Candida cylindracea. Description: lipase activity, turbidimetric method with triolein. Type of test: biochemical. As to conditions: enzyme CC; 9 millimoles; incubated 30 minutes at 25°C, pH 9.2; relative to control. How it is done: (§1) N,N¹-dichlorodimethyl hydantoin in an amount of 9 millimoles was dissolved in ethanol and added to a lipase in a tris (hydroxymethyl) aminomethane/hydrochloric acid buffer at a pH of 9.2. The mixture was incubated for 30 minutes at 25°C and neutralised by the addition of thiosulphate. The activity of the enzyme was determined as described hereafter.
(§2) Lipase activity was determined by the turbidimetric method described on pages 26 to 34 of "Methods of Enzymatic Analysis" Third Edition, edited by H V Bergmeyer and published by Verlag Chemie. The decrease in the light scattering of triolein (1,2,3-tris[cis-9-octadecenoyl]glycerol) by lipase was measured at 25°C and 350 nanometres on a Perkin-Elmer Lambda 15 spectrophotometer. Light scattering was measured on 2.8cm³ of an aqueous solution containing 24 micromoles of "Tris" buffer at pH 9.2, one micromole of calcium chloride, 35 micromoles of sodium chloride, 17.5 micromoles of sodium deoxycholate and 0.28 micromole of triolein. The activity was determined by the addition of 5mm³ of an aqueous solution containing 4.5mg cm⁻³ of lipase. Table Two

Test [5] relates to lipase from Pseudomonas species. The description is as above. Conditions: enzyme PS; 9 millimoles; incubated 30 minutes at 25°C, pH 9.2; relative to control. Type of test: biochemical. How it is done: as §1, §2
For a further test, the system named is protease from S. griseus. The experiment in a line: protease catalysed hydrolysis of chromogenic substrate. Type of test: biochemical. As to conditions: substrate BTEE, one hour at 25°C, pH7. How it is done:
N,N¹-dichlorodimethyl hydantoin was dissolved in ethanol in a known amount and was added to a protease in a 0.1M potassium phosphate buffer containing potassium dihydrogen phosphate and dipotassium hydrogen phosphate at pH7. The mixture was incubated for one hour at 25°C and the enzyme activity was then compared to that of a control by monitoring the protease catalysed hydrolysis of an appropriate chromogenic substrate.

Test [6] deals with purified components of the cellulase complex. As to conditions: Wood et al, Biochem.J. (1980), 189, 51 to 65; cited from earlier work.

Where a name gives a salt, the structure may show the parent alone.

Turning to `Cln1cncn1` [CT, 1-chloro-1,2,4-triazole], in test [1], the “Flow Rate (b) With additive 10” value was 23.50 min and the “Flow Rate (b) With additive 60” value came out at 22.90 min.
Regarding `O=S(=O)(c1ccccc1)N(Cl)Cl` [DCBS, N,N-dichlorobenzene sulphonamide], in test [1], the “Flow Rate (b) With additive 10” value is 21.20 min and the “Flow Rate (b) With additive 60” value amounted to 18.80 min.
Consider `O=c1[nH]c(=O)n(Cl)c(=O)n1Cl` [DCIA, dichloroisocyanuric acid], for which, in test [1], the “Flow Rate (b) With additive 10” value was determined as 22.10 min and the “Flow Rate (b) With additive 60” value amounted to 22.30 min.
In the case of `O=c1[nH]c(=O)n(Cl)c(=O)n1Cl` [DCIS, sodium salt of dichlorosiocyanuric acid], in test [1], the “Flow Rate (b) With additive 10” value is 21.90 min and the “Flow Rate (b) With additive 60” value was found to be 19.40 min.
Regarding `CC1(C)C(=O)N(Cl)C(=O)N1Cl` [DCMH, N,N¹-dichlorodimethyl hydantoin], in test [1], the “Flow Rate (b) With additive 10” value was determined as 23.10 min. The “Flow Rate (b) With additive 60” value in test [1] is 22.90 min. Also, the activity at 900 µM in test [2] (DCMH 0.9 mM) amounted to 66%. Further, the activity at 9000 µM in test [2] (DCMH 9.0 mM) stood at 29%. For the same molecule, in test [3], the “breakdown of starch to sugar” value is recorded as “no breakdown of starch to sugar could be deteced”. In addition, the “% of activity retained (d)” value in test [4] is listed as 14%; in test [5], 45%. Besides, the “% of activity retained (h)” value stood at 88% with protease from S. griseus (DCMH 0.9 mM) and 9% in the test on protease from S. griseus (DCMH 9.0 mM).
Regarding `O=C1CCC(=O)N1Br` [N-bromosuccinimide], in test [6], the “effect on the activity of the enzyme” value is “potent inhibitor”.
Take `CC(=O)OI(OC(C)=O)c1ccccc1` [PIDA, phenyl iodonium di-acetate]: in test [1], the “Flow Rate (b) With additive 10” value stood at 22.60 min and the “Flow Rate (b) With additive 60” value amounted to 21.80 min.
Taken in the same sequence, the figures for `O=C1N(Cl)C2C(N1Cl)N(Cl)C(=O)N2Cl` (centres unmarked) [TCG, tetrachloroglycoluril] were 23.60 min and 23.00 min.
Taken in the same sequence, the figures for `CC12N(Cl)C(=O)N(Cl)C1(C)N(Cl)C(=O)N2Cl` (centres unmarked) [TCMG, tetrachloro-dimethyl glycoluril] were 22.80 min and 22.50 min.
For the molecule sodium tetrachloroaurate [STCA], in test [1], the “Flow Rate (b) With additive 10” value was 23.80 min and the “Flow Rate (b) With additive 60” value amounted to 23.70 min.

Source of the values: patent EP0404374A2, “Composition” (IMPERIAL CHEMICAL INDUSTRIES PLC, priority 1989, dated 1990).
